Here are results for two compounds from patent publication US9884862B2, “Pyridopyrimidinedione derivatives” (Novartis AG, priority 2014, dated 2018).

One assay relates to CFTR-Y122X. Description: CFTR-Y122X assay (dual reporter isogenic Hek293 cell lines, Renilla luminescence readthrough). Type of assay: cell-based. As to conditions: Homo sapiens, HEK293, 24 h, nonsense mutation suppression, 24 h incubation, tested up to 100 μM; for Emax: 100% = 14 mM paromomycin, read-out: Amax. An excerpt:
Activity of compounds of the present invention was examined in recombinant, dual reporter isogenic Hek293 cell lines (“CFTR-Y122X assay”). The engineered reporter constructs contained the 18 bp sequence stretch corresponding to a common Y122X PTC mutation in CFTR class I mutant patients (see Sermet-Gaudelus, BMC Medicine, 2007, 5(5)). Instead of a tyrosine (Y) in position 122 of the CFTR protein a TGA stop codon interrupts the open reading frame (Y122X) of the corresponding mRNA. This TGA stop codon triplet (followed by the pyrimidine base cytosine) is permissive to aminoglycoside mediated translational readthrough which served as positive control for high throughput screening. A corresponding TAA stop codon variant and a wildtype non mutated construct was used for confirmation and counter screening. The CFTR sequence was sandwiched between an eGFP reporter, and a triple myc tag sequence fused to a full length Renilla reporter. All sequences, including an intron containing one positioned pre-eGFP (b-globin intron) were cloned in frame. The corresponding expression constructs were stably expressed in the isogenic HEK-R4 cell host (Invitrogen Incorp.) and selected by blasticidin resistance. The isogenic integration of the construct minimizes gene dose effects and improves assay reproducibility. Stably integrated single cell derived clones were selected and characterized for aminoglycoside mediated readthrough. […] Readthrough of Y122X accumulates an intracellular localized fusion protein approximately 65.5 kDa in size as controlled by western blot analysis and immunofluorescence using an anti-renilla antibody. The eGFP reporter pre-PTC mutation serves as visual control for genetic stability of the screening clones and minimizes protein degradation of small fusion protein amounts. In the assay, compound concentration was 10 μM. In miniaturized 1536 well format 2000 cells were dispensed in 4 μl/well and incubated for 24 h at 37° C., 5% CO2. 40 nl compounds were placed on the cells with control wells containing 1 ul Paramomycin and 14.4 mM final concentration. Compounds were incubated for 24 h. Renilla Glo substrate (2.5 ul) was added and plates were centrifuged and processed for luminescence measurement using various readers. Activity calculation was done using the equation: A1(%)=100*(S−NC)/(AC−NC) where AC, NC and S correspond to active controls (injection of Stimulation buffer=100% stimulation), neutral controls (buffer injection which Iloprost EC10) and screening samples (S). NC corresponds to 0% activity whereas AC is 100% activity (14 mM paromomycin). False positive artifacts were removed in confirmation and validation screening using the same assay format followed by counterscreening using the respective wildtype construct (w/o PTC mutation) cell model. Compounds were tested up to 100 μM compound concentration.

Assay [1] deals with alpha-L-Iduronidase W402X in Hurler patient derived fibroblast cells. Description: Hurler patient derived fibroblast cell cultures, restored alpha-L-iduronidase activity (W402X readthrough). Type of assay: cell-based, human. Conditions: Homo sapiens, Fibroblast, 192 h, 8 days incubation, highest concentration 20 uM; for Emax: 14 mM paromomycin = 100% control, read-out: Amax. The source says:
Activity of compounds of the present invention was examined in patient derived fibroblast cells. The genotyped cells were derived from the Coriell Institute (# GM00798) and contain an in frame homozygous TGG to TAG change at nucleotide 1293 of exon 9 which results in a W402X mutation. The W402X mutation is one of the most common Hurler syndromes causing loss of function mutation. Between 60-70% of genotyped patients contain either the Q70X and/or the W402X in mutation and are classified as severe MPSI patients. This TAG stop codon triplet is permissive to aminoglycoside mediated translational readthrough which served as activity control for compound testing. Readthrough of W402X restores alpha-L-Iduronidase activity which results in removal of lysosomal accumulated Glycosaminoglycan's. Iduronidase expression could neither be detected by Taqman PCR© nor by enzyme activity or ELISA methods without compound stimulation. Compounds were tested in concentration response mode. Therefore 5000 patient cells/40 ul/well in 384 well plates were used. Compound dilutions were derived from freshly prepared 10 mM compound stock solutions. Highest concentration was 20 uM and subsequently diluted 1: 3.16 (8 point dilutions, n=4). Final DMSO concentration was below 0.5% and tested to be without effect on cell viability, growth and readthrough. Cells were incubated for 8 days with one cell media and compound exchange at day 3. Thereafter cell media was removed and cells were lysed (0.4 M Sodiumformate, 0.1% NaN3, 0.9% NaCl, 0.2% Triton, pH 3.5). Restored alpha-L-iduronidase activity in cell lysates was measured with the fluorescent 4-MU iduronide substrate (5 ul of 0.4 mM 4 Methylumbelliferyl alpha-L-iduronide/well) after 48 h incubation. Paromomycin was used as reference control (14 mM=100% control).

Molecules are shown by their SMILES.

The term AC50 denotes the concentration at which the activity in the assay is half-maximal. Lower therefore signals greater potency. As for `Cc1[nH]c2nc(C3CCC3)n(-c3ccccc3)c(=O)c2c(=O)c1C` [Example 3.12, 2-cyclobutyl-6,7-dimethyl-3-phenylpyrido[2,3-d]pyrimidine-4,5(3H,8H)-dione], the Emax with CFTR-Y122X stood at 505%; in assay [1], 183%. Also, the half-maximal activity concentration (AC50) in the assay with CFTR-Y122X came out at 4.9 µM; in assay [1] (8 point dilutions) it was 12 µM.

Turning to `Cc1c(C)n(C)c2nc(C3CCC3)n(-c3ccccc3)c(=O)c2c1=O` [Example 3.13, 2-cyclobutyl-6,7,8-trimethyl-3-phenylpyrido[2,3-d]pyrimidine-4,5(3H,8H)-dione], in the assay on CFTR-Y122X, the Emax was determined as 297% and the concentration at half-maximal activity (AC50) amounted to 9.2 µM. The Emax in assay [1] was found to be 34%.
